Experimental data published in patent US11214803B2, “Modulators of YAP1 expression” (Ionis Pharmaceuticals, Inc., priority 2019, dated 2022).
Strand notation (5' to 3'): a small letter for the sugar, then the base; units joined by * are phosphorothioate-linked, units joined directly phosphodiester-linked; [ ] holds rarer units or linkages, { } end groups; capitals alone tell only the bases. k = constrained ethyl (cEt); [5mC] = 5-methylcytosine; d = 2'-deoxy (DNA)

test system: Yap1 mRNA; experiment: Antisense inhibition of human Yap1 in A-431 cells by cEt gapmers, single dose (Example 3, RTS36584); format: cell-based; conditions: Table 8; A-431 cells, 5,000 cells per well, free uptake, 2,000 nM, approximately 48 hours; RTS36584; normalized to RIBOGREEN; Yap1 mRNA relative to untreated control cells
Outline: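 A-431 cells (5,000/well) took up the 3-10-3 cEt gapmers by free uptake at 2,000 nM for about 48 h. Yap1 mRNA was measured by RT-qPCR with primer probe set RTS36584, normalized to RiboGreen total RNA, and given as % of untreated control.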

Row | Substance | YAP1 (% UTC)
1 | 958391 (antisense kA*kG*k[5mC]*dG*dA*dA*dG*dG*dT*dG*d[5mC]*dG*dG*kA*kG*k[5mC]) [Compound 958391] | 102
2 | 958400 (antisense kT*kT*kG*dA*d[5mC]*d[5mC]*dA*dA*d[5mC]*dT*dA*d[5mC]*dT*kT*kG*kA) [Compound 958400] | 26
3 | 958397 (antisense k[5mC]*kA*kG*dG*d[5mC]*dT*dA*dT*dT*dA*dA*dG*d[5mC]*kT*kG*kT) [Compound 958397] | 127
4 | 958357 (antisense k[5mC]*kG*kG*d[5mC]*dT*dT*dG*dA*dA*dG*dA*dA*dG*kG*kA*kG) [Compound 958357] | 12
5 | 958361 (antisense kG*k[5mC]*kT*d[5mC]*dG*dA*dA*d[5mC]*dA*dT*dG*d[5mC]*dT*kG*kT*kG) [Compound 958361] | 8
6 | 958421 (antisense k[5mC]*kT*k[5mC]*d[5mC]*dG*dT*dG*dG*dT*dG*dA*dT*d[5mC]*k[5mC]*k[5mC]*kA) [Compound 958421] | 13

same assay, conditions: Table 9; A-431 cells, 5,000 cells per well, free uptake, 2,000 nM, approximately 48 hours; RTS36584; normalized to RIBOGREEN; Yap1 mRNA relative to untreated control cells

Row | Substance | YAP1 (% UTC)
7 | 958591 (kT*k[5mC]*kA*d[5mC]*dA*dG*dT*dA*d[5mC]*dT*dG*d[5mC]*dT*kA*k[5mC]*kA; antisense) [Compound 958591] | 38
8 | 958451 (antisense k[5mC]*kA*k[5mC]*dG*dA*dT*d[5mC]*dT*dG*dA*dT*dG*d[5mC]*k[5mC]*k[5mC]*kG) [Compound 958451] | 10
9 | 958461 (antisense kG*k[5mC]*k[5mC]*dG*dA*dA*dG*d[5mC]*dA*dG*dT*dT*d[5mC]*kT*kT*kG) [Compound 958461] | 79
10 | 958806 (kT*kG*k[5mC]*d[5mC]*dT*dA*dG*dG*dG*dT*dT*d[5mC]*dT*kG*kT*kG; antisense) [Compound 958806] | 30

same assay, conditions: Table 10; A-431 cells, 5,000 cells per well, free uptake, 2,000 nM oligonucleotide, approx. 48 hours; primer probe set RTS36584; Yap1 mRNA normalized to RIBOGREEN, percent of untreated control

Row | Substance | YAP1 (% UTC)
11 | 958477 (antisense kA*kT*kT*dT*d[5mC]*d[5mC]*dG*dG*dT*dG*d[5mC]*dA*dT*kG*kT*kG) [Compound 958477] | 2
12 | 958647 (kT*kA*kG*dG*dA*dA*dG*dT*dT*dG*dT*dT*dG*kA*k[5mC]*k[5mC]; antisense) [Compound 958647] | 11
13 | 958637 (antisense k[5mC]*k[5mC]*kG*d[5mC]*dA*dG*dA*dG*dA*dG*dA*dA*dA*k[5mC]*kT*k[5mC]) [Compound 958637] | 101
14 | 958492 (kT*kG*kT*d[5mC]*dA*dG*dA*d[5mC]*d[5mC]*dA*dG*dT*dA*kA*kA*kT; antisense) [Compound 958492] | 12
15 | 958677 (kA*kG*kA*dA*d[5mC]*dT*dT*dA*dG*dT*dT*d[5mC]*d[5mC]*k[5mC]*kT*kA; antisense) [Compound 958677] | 51
16 | 958467 (antisense kG*kG*kT*dG*dG*d[5mC]*dA*dG*d[5mC]*d[5mC]*dA*dA*dA*kA*k[5mC]*kA) [Compound 958467] | 32
17 | 958817 (kT*kG*k[5mC]*d[5mC]*dA*dG*dG*dT*dA*dA*dG*d[5mC]*d[5mC]*kA*k[5mC]*kA; antisense) [Compound 958817] | 30

same assay, conditions: Table 11; A-431 cells, 5,000 cells per well, free uptake, 2,000 nM oligonucleotide, approx. 48 hours; primer probe set RTS36584; Yap1 mRNA normalized to RIBOGREEN, percent of untreated control

Row | Substance | YAP1 (% UTC)
18 | 958673 (kA*kG*kA*dA*d[5mC]*dT*dT*dA*dG*dT*dT*d[5mC]*d[5mC]*k[5mC]*kT*kT; antisense) [Compound 958673] | 30
19 | 958813 (kT*kT*kA*d[5mC]*dA*dG*dA*dG*dA*dG*dA*dT*dT*k[5mC]*kA*kT; antisense) [Compound 958813] | 8
20 | 958563 (kA*kG*k[5mC]*dT*dT*dT*dT*dG*d[5mC]*d[5mC]*dA*dG*dG*kA*kG*kA; antisense) [Compound 958563] | 3
21 | 958763 (antisense k[5mC]*kA*k[5mC]*dA*dA*dT*dA*d[5mC]*dA*dA*dG*dA*dT*kG*k[5mC]*kA) [Compound 958763] | 3
22 | 958478 (antisense kG*kG*kA*dA*dA*dT*dT*dT*d[5mC]*d[5mC]*dG*dG*dT*kG*k[5mC]*kA) [Compound 958478] | 14

same assay, conditions: Table 12; A-431 cells, 5,000 cells per well, free uptake, 2,000 nM modified oligonucleotide, approx. 48 hours; RTS36584; normalized to RIBOGREEN; Yap1 mRNA relative to untreated control cells

Row | Substance | YAP1 (% UTC)
23 | 958619 (antisense kT*kG*kG*dG*dT*d[5mC]*dT*dA*dG*d[5mC]*d[5mC]*dA*dA*kG*kA*kG) [Compound 958619] | 71
24 | 958764 (antisense kT*kG*kG*dG*dT*d[5mC]*dT*d[5mC]*dT*dT*dG*dA*dT*kT*kT*k[5mC]) [Compound 958764] | 34
25 | 958714 (antisense kG*kA*kG*d[5mC]*dA*d[5mC]*dT*dG*d[5mC]*dG*d[5mC]*d[5mC]*d[5mC]*kT*kG*kG) [Compound 958714] | 82
26 | 958494 (kT*kA*kG*d[5mC]*dA*d[5mC]*dT*dA*dG*dG*dA*dG*dG*kA*kA*kA; antisense) [Compound 958494] | 28
27 | 958809 (kT*k[5mC]*kT*dT*dA*dA*d[5mC]*dA*d[5mC]*d[5mC]*dT*dG*dA*kG*k[5mC]*kT; antisense) [Compound 958809] | 66
28 | 958474 (antisense kG*kT*kG*dT*d[5mC]*dT*d[5mC]*d[5mC]*dT*dT*dA*dG*dA*kT*k[5mC]*k[5mC]) [Compound 958474] | 3

same assay, conditions: Table 13; A-431 cells, 5,000 cells per well, free uptake, 2,000 nM modified oligonucleotide, approx. 48 hours; RTS36584; normalized to RIBOGREEN; Yap1 mRNA relative to untreated control cells

Row | Substance | YAP1 (% UTC)
29 | 958460 (antisense kT*k[5mC]*kG*d[5mC]*dA*dT*d[5mC]*dT*dG*dT*dT*dG*d[5mC]*kT*kG*k[5mC]) [Compound 958460] | 52
30 | 958560 (kG*kG*kT*dG*d[5mC]*d[5mC]*dA*d[5mC]*dT*dT*dT*dA*dA*kT*kT*k[5mC]; antisense) [Compound 958560] | 22
31 | 958480 (antisense kA*kA*k[5mC]*dT*dG*dG*d[5mC]*dT*dT*dA*dT*dG*dG*kA*kA*kA) [Compound 958480] | 24
32 | 958555 (kG*k[5mC]*kT*dT*dA*dT*dA*dT*dT*dG*dA*dA*dG*kA*kG*kT; antisense) [Compound 958555] | 4

same assay, conditions: Table 26; Yap1 mRNA by 3-10-3 cEt gapmers targeting SEQ ID NO.: 1, and 2; percent of untreated control

Row | Substance | YAP1 (% UTC)
33 | 1074956 (antisense kA*k[5mC]*k[5mC]*d[5mC]*dG*dG*dG*dT*dT*dT*dT*dT*dG*kT*k[5mC]*kA) [compound 1074956] | 104
34 | 1074252 (antisense kG*kG*kA*d[5mC]*dA*dG*d[5mC]*dA*dT*dG*dG*d[5mC]*d[5mC]*kT*kT*k[5mC]) [compound 1074252] | 50

same assay, conditions: Table 28; Yap1 mRNA as percent of untreated control; 3-10-3 cEt gapmers targeting SEQ ID NO.: 1, and 2

Row | Substance | YAP1 (% UTC)
35 | 1074670 (antisense kA*kA*kG*dT*dA*dG*d[5mC]*dT*dT*dT*dG*dA*dT*k[5mC]*kT*kT) [compound 1074670] | 49
36 | 1074286 (antisense kT*kG*kA*dT*dT*d[5mC]*dT*d[5mC]*dT*dG*dG*dT*dT*k[5mC]*kA*kT) [compound 1074286] | 32
37 | 1075534 (kA*k[5mC]*k[5mC]*d[5mC]*dA*dA*dG*dG*dA*d[5mC]*dA*dG*d[5mC]*kA*k[5mC]*kA; antisense) [compound 1075534] | 53
38 | 1074958 (antisense kT*kA*kA*d[5mC]*d[5mC]*d[5mC]*dG*dG*dG*dT*dT*dT*dT*kT*kG*kT) [compound 1074958] | 107
39 | 1074926 (antisense k[5mC]*kA*kA*d[5mC]*dA*dG*dG*d[5mC]*d[5mC]*dT*dG*d[5mC]*dA*kA*kA*kT) [compound 1074926] | 111

same assay, conditions: Table 34; Yap1 mRNA as percent of untreated control; 3-10-3 cEt gapmers targeting SEQ ID NO: 1 and 2; single dose

Row | Substance | YAP1 (% UTC)
40 | 1076180 (kA*kT*kA*dA*dT*dT*dA*dG*d[5mC]*d[5mC]*dA*dA*d[5mC]*k[5mC]*kA*k[5mC]; antisense) [compound 1076180] | 42
41 | 1075220 (kA*kA*kT*dT*dT*dT*dA*dA*d[5mC]*dT*dG*dT*dG*kA*k[5mC]*k[5mC]; antisense) [compound 1075220] | 24
42 | 1074388 (kG*kA*k[5mC]*dT*dT*dG*dG*d[5mC]*dA*dT*d[5mC]*dA*dG*k[5mC]*kT*k[5mC]; antisense) [compound 1074388] | 16
43 | 1075988 (kA*kA*kT*dT*dA*dA*dG*d[5mC]*dT*dT*d[5mC]*dT*d[5mC]*kT*kA*kG; antisense) [compound 1075988] | 90
44 | 1075764 (k[5mC]*kT*kT*d[5mC]*dA*dA*dG*dG*dA*dA*dG*dG*dT*kG*k[5mC]*kT; antisense) [compound 1075764] | 103

same assay, conditions: Table 35; Yap1 mRNA as percent of untreated control; 3-10-3 cEt gapmers targeting SEQ ID NO: 1 and 2; single dose

Row | Substance | YAP1 (% UTC)
45 | 1075477 (k[5mC]*kT*kT*dT*dA*dT*d[5mC]*dT*d[5mC]*dA*d[5mC]*dT*dA*kG*k[5mC]*kT; antisense) [compound 1075477] | 86
46 | 1075029 (antisense kA*kT*kA*dT*dT*d[5mC]*dG*dA*d[5mC]*dA*d[5mC]*dT*dG*kG*kA*kG) [compound 1075029] | 33
47 | 1075125 (k[5mC]*kT*kT*dA*dA*dG*dG*dT*dA*d[5mC]*dA*dA*dG*kG*k[5mC]*kA; antisense) [compound 1075125] | 84
